# Test results reported in patent publication US20140199346A1 (priority 2009, published 2014).
# Entries after “also recorded” stand apart in the source; their conditions may differ.
# How the values were obtained:
# NK cells = system: NK cells; parameters: species or system mice; conditions: mouse, in vivo
# [1] = system: H1N1 subtype of influenza virus A/PR/8; assay: Test Example 2: oral administration to mice infected with influenza virus (2,000 pfu/mouse), body weights and survival rates; type: in vivo
# Method: It should be noted that the phrase “dead bacterial cells of EF lactic acid bacterium” in the table means a commercially available heat-sterilized bacterial cell powder of Enterococcus faecalis.
# Infection of mice used as experimental animals with the influenza virus was carried out so that the virus titer was twice as large as that in Test Example 1. That is, the infection was carried out in the same manner as in Test Example 1 except that a diluted virus solution having a virus titer of 4×10^4 pfu/mL was injected from both nasal cavities alternately using a micropipette in an amount of 50 μL (2,000 pfu/mouse).
# That is, in the case of each of Test groups 3 to 5 and Control group 2, the test solution was orally administered every day during the test period by the sonde method once a day in an amount of 200 μL. […]
# The body weights of the mice after infection with the virus were measured every day, and transition of the body weights and survival rates were determined.
# [2] = system: H1N1 subtype of influenza virus A/PR/8; assay: Test Example 4: virus titer in lung of mouse (plaque count on MDCK cells); type: in vivo, mice
# Method: In order to study mechanisms of the effects shown in Test Examples 1 to 3, influences on a virus titer in the lung of a mouse infected with the influenza virus were examined. Specifically, test solutions were prepared for the test groups and control group shown in Table 7 below, respectively, and orally administered, and the virus titer in the lung of each mouse infected with the influenza virus was examined. It should be noted that the phrase “dead bacterial cells of EF lactic acid bacterium” in the table means a commercially available heat-sterilized bacterial cell powder of Enterococcus faecalis.
# That is, the mice were infected with the influenza virus in the same manner as in Test Example 2 except that the period after the beginning of administration of the test solutions was changed to one week. […] In the case of Test group 14, the test was carried out in the same manner as in Test group 13 except that the dead bacterial cells of the lactic acid bacterium (6.7×10^9 cells) were used in combination as a suspension in 200 μL of the culture solution of Aureobasidium. In addition, in the case of Test group 15, to which only oseltamivir was administered, in order to carry out comparison with the maximum effect of administration of only oseltamivir, oseltamivir was orally administered continuously every day (morning and evening, in an amount of 200 μL per dose) after virus infection.
# The virus titer in the lung of a mouse was measured as follows.
# On day 1, day 3, and day 5 of virus infection, three mice of each group were dissected, and the lung washed with PBS to remove blood was collected. The collected lung was crushed, and the tissue was separated as a cell suspension and then centrifuged at 5,000 rpm for 10 minutes. The supernatant was collected and used as a sample. The collected sample was diluted serially in 10-fold steps with 1×MEM to concentrations ranging from 10^−1 to 10^−6. On the other hand, MDCK cells were cultured from the previous day, and a state in which the MDCK cells (one sample: one 12-well plate) were proliferated to confluency was confirmed. Then, the medium of the MDCK cells was removed, and the cells were washed with 1 ml of PBS. PBS used for washing was removed, and each of the samples diluted serially was added in an amount of 100 μL, and then the plate was allowed to stand still in a 5% CO2 incubator (37° C.) for one hour. During incubation, the plate was shaken every 15 minutes to prevent the cells from drying. Subsequently, 2×MEM was mixed with an equal amount of a 1.6% agar solution, and trypsin was added so as to reach a final concentration of 0.0005% to prepare a MEM-agar solution. The solution was warmed in a water bath at 42° C. One hour later, the virus solution was removed, and the cells were washed with 1 ml of PBS. The prepared MEM-agar solution was added to each well in an amount of 1 ml, and the plate was allowed to stand for a while until the agar was solidified. After that, the cells were cultured in a 5% CO2 incubator (35° C.), and 48 hours later, the number of plaques was counted.
# T cells = system: T cells; parameters: species or system mice; conditions: mouse, in vivo
# [3] = system: H1N1 subtype of influenza virus A/PR/8; assay: Test Example 1: oral administration to mice infected with influenza virus (1,000 pfu/mouse), body weights and survival rates; type: in vivo
# Method: Test solutions were prepared for the test groups and control group shown in Table 1 below, respectively, and effects of oral administration of the solutions on mice infected with an influenza virus were examined. It should be noted that “Tamiflu dry syrup 3%” (product name, Chugai Pharmaceutical Co., Ltd.) was used as an anti-influenza drug oseltamivir.
# As experimental animals, mice (C57BL/6NJc1, male, 6 weeks old) were used, and as the influenza virus, H1N1 subtype of influenza virus A/PR/8 was used. Infection of the mice with the influenza virus was carried out as follows. That is, the mice were placed in a container filled with isoflurane, and taken out after confirming that their breathing became slow. […] After confirming that the mice recovered from anesthesia, the mice were returned to breeding cages.
# It should be noted that the culture solution of Aureobasidium (Test group 1) was orally administered every day during the test period by a sonde method once a day in an amount of 200 μL. […] The body weights of the mice after infection with the virus were measured every day, and transition of the body weights and survival rates were determined.
compound,measurement,setting,value
"CCOC(=O)C1=C[C@@H](OC(CC)CC)[C@H](NC(C)=O)[C@@H](N)C1 [Test group 2, oseltamivir]",ratio of NK cells in viable cells in the lung,NK cells,about 1.8%
same,ratio of NK cells in viable cells relative to Control group,NK cells,about one-quarter
same,ratio of activated NK cells in the NK cells,NK cells,46.2%
same,body weights decreased by up to,[1]; mice whose body weight decreased,about 34%
same,mice died during the test period,"[1]; oral, until day 17 of infection",50%
same,Comparison of virus titers (virus titer for administration of PBS on each day after infection is defined as 1),[2]; 1 day after infection,1/5
same,Comparison of virus titers (virus titer for administration of PBS on each day after infection is defined as 1),[2]; 3 days after infection,1/53
same,Comparison of virus titers (virus titer for administration of PBS on each day after infection is defined as 1),[2]; 5 days after infection,1/89
same,mouse lung virus titer,[2]; day 1 of infection,5.88 log10 PFU
same,increase of lung virus titer as compared to day 1 of infection,[2]; day 3 of infection,15.4 fold
same,mouse lung virus titer,[2]; day 3 of infection,6.83 log10 PFU
same,increase of lung virus titer as compared to day 1 of infection,[2]; day 5 of infection,122 fold
same,mouse lung virus titer,[2]; day 5 of infection,7.76 log10 PFU
same,number of activated T cells relative to Control group 5,T cells,about one-third
same,ratio of activated T cells in the T cells,T cells,7.3%
same,survival rate,"[3]; 1,000 pfu/mouse, oral, until day 14 of infection, 3 mice",100%
same,body weight increase at the end of the test (day 14 of infection) as compared to the first day of infection,"[3]; individual mouse, 1,000 pfu/mouse",5%
same,body weight at completion of the test,"[3]; individual mouse, after recovery, day 14 of infection",same body weight as that on the first day of infection
same,body weight decrease at completion of the test as compared to the first day of infection,"[3]; individual mouse, day 14 of infection",3%
same,body weight decreased by up to,"[3]; individual mouse, maximum loss after infection, 1,000 pfu/mouse",about 20%; also recorded: about 25%
